The results in this text go back to PMC8151276, “An Integrated Approach toward NanoBRET Tracers for Analysis of GPCR Ligand Engagement” (Molecules, 2021).

What all share (type): binding
One assay addresses T1, FPR1 (Homo sapiens, UniProt P21462).
T1 construct: purchased Promega (in-house HiBiT-GPCR construct library, NanoBRET)
T1 sequence (P21462 1-350): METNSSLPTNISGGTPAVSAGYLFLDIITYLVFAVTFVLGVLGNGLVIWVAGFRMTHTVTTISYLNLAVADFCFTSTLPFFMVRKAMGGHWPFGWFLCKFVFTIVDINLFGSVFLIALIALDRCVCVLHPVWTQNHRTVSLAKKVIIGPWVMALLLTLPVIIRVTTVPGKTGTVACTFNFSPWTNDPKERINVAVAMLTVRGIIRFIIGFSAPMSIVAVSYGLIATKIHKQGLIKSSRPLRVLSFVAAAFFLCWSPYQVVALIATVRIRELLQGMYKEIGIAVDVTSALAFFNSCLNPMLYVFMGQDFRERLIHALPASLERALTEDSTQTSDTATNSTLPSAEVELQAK
As to the kind of experiment: NanoBRET screen HiBiT-FPR1 in HEK293. Particulars: FPR1. The method, then:
(§1) Each tracer candidate was screened across the entire library of HiBiT-GPCR constructs using NanoBRET as the detection modality. As depicted in Figure 4A, the specificity of interactions was evaluated through decrease in BRET due to competitive displacement of a bound tracer by excess parental compound. Each tracer was analyzed for binding to each HiBiT-GPCR fusion in the absence and in the presence of competing parental compound. Briefly, HEK293 cells were transfected with HiBiT-GPCR constructs diluted into promoterless DNA to reduce expression and maximize translocation to the cell surface. Each tracer candidate was then screened at concentrations of 1 μM and 0.1 μM across cells expressing these fusions. Cells were treated for 1.5 h with tracer either alone or in the presence of 20 μM competing parental compound (i.e., control). BRET was measured upon addition of purified LgBiT and subsequent complementation with HiBiT genetically fused to a GPCR. The specificity of interactions was assessed through a decrease in BRET signal due to competitive displacement of the bound tracer. To further gauge the robustness of these interactions, the fold response over the control (i.e., BRETtracer/BRETcontrol) was calculated. We chose a 1.5-fold response, which translates to ≥7-fold signal over noise as the minimal threshold required to score an interaction as positive. […]. Below we highlight the screening results obtained for our exemplary fluorescent tracers based on Clozapine, Amitriptyline and AZD1283.
(§2) HiBiT-GPCR DNA constructs were diluted in 10 mM Tris pH 8 to a final concentration of 0.01 μg/μL, arrayed in 96-well plates and stored at −20 °C. For transfection, HEK293 cells were suspended in Opti-MEM (without phenol red) supplemented with 2% fetal bovine serum (Seradigm) and 100 units/mL penicillin–streptomycin (Gibco) at a final concentration of 220,000 cells/mL and dispensed into white 96-well plates at 90 μL/well. Subsequent transfections and screens were carried using an Agilent Bravo Automated Liquid Handling Platform. First, the 96-well HiBiT DNA arrays were diluted 25-fold in Opti-MEM (without serum or phenol red) to a final concentration of 0.0004 μg/μL and 20 μL of the diluted DNAs were transferred into new 96-well plates. Next, promoterless carrier DNA (1 μg/μL) was diluted 25-fold (0.04 μg/μL) and then dispensed into the diluted arrays at 20 μL/well. Following brief mixing, Viafect transfection reagent (Promega) diluted 16-fold into Opti-MEM was dispensed into the plates at 40 μL/well. After mixing by pipetting, plates were incubated for 10 min on the pipetting station deck. The DNA-transfection reagent complexes were then added to plates containing cells. To facilitate the screen, 10 μL of DNA-transfection reagent complexes were added in duplicates to the top 4 and bottom 4 rows, resulting in two identical 48-well arrays per plate. Plates with transfected cells were incubated for 18–20 h at 37 °C/5% CO2. A screen of each tracer across the entire library using two different concentrations requires duplicate plates of transfected cells. Depending on the number of tracers being screened, transfections can be scaled up using the same ratios. The next day, for each tracer, four 20× screening solutions in tracer dilution buffer (Promega) were prepared: two duplicates at final concentration of 20 μM and two duplicates at a final concentration of 2 μM. A competing unmodified compound was added to one of each duplicate at a final concentration of 400 μM. The four resulting solutions were diluted 4-fold in Opti-MEM without serum or phenol red to generate 5× solutions (5 µM and 0.5 µM tracer +/− 100 μM competing compound). To screen the library, a BioTek MultiFlo FX liquid dispenser was used to dispense 22.5 µL of tracer solution to the top 4 rows and 22.5 µL tracer + competing compound solution to the 4 bottom rows. Plates were briefly mixed on an orbital shaker and incubated for 1.5 h at room temperature. […]
In general terms: In BRET a luciferase serves as donor, and the signal depends on an acceptor being close.

A further assay deals with T2, MTNR1B (Homo sapiens, UniProt P49286).
T2 construct: purchased Promega (in-house HiBiT-GPCR construct library, NanoBRET)
T2 sequence (P49286 1-362): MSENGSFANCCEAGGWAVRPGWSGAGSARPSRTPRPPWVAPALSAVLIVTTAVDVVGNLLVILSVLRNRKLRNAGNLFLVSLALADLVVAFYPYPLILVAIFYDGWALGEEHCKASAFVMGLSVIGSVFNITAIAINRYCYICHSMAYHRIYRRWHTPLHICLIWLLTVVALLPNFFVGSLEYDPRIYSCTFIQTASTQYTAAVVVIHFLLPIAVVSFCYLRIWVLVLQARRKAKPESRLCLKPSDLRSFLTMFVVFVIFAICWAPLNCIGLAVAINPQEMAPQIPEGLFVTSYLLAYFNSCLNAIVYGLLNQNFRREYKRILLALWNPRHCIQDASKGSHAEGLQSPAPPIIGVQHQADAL
Put plainly: NanoBRET screen HiBiT-MTNR1B in HEK293. The note with it: MTNR1B. How it is done:
as §1, §2

In the next assay the target is T3, CXCR5 (Homo sapiens, UniProt P32302).
T3 construct: purchased Promega (in-house HiBiT-GPCR construct library, NanoBRET)
T3 sequence (P32302 1-372): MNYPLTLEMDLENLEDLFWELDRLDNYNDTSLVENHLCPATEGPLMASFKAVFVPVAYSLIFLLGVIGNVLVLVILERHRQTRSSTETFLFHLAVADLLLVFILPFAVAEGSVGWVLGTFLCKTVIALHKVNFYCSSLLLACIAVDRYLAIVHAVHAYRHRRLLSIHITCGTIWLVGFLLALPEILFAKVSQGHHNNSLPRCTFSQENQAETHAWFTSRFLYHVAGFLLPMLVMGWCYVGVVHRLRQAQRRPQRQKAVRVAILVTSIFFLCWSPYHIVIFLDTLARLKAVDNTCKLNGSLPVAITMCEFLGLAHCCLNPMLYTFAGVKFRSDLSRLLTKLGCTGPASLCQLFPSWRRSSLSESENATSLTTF
Put plainly: NanoBRET screen HiBiT-CXCR5 in HEK293. The note with it: CXCR5. How it is done:
as §1, §2

The target in the next assay is T4, HTR1E (Homo sapiens, UniProt P28566).
T4 construct: purchased Promega (in-house HiBiT-GPCR construct library, NanoBRET)
T4 sequence (P28566 whole entry): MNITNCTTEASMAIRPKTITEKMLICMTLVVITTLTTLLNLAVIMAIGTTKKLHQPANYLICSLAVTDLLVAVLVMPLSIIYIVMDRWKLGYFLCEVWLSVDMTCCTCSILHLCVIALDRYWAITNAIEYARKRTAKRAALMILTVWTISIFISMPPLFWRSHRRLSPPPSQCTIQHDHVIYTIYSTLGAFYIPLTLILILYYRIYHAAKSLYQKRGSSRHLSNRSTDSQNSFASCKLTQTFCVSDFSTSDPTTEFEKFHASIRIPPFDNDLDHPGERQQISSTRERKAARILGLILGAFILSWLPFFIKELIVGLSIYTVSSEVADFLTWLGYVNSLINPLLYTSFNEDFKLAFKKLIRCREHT
As to the kind of experiment: NanoBRET screen HiBiT-HTR1E in HEK293. The note with it: HTR1E. The method, then:
as §1, §2

As to `O=C(CCOCCOCCOCCOCCNC(=O)CCc1ccc2n1[B-](F)(F)[N+]1=C(c3ccc[nH]3)C=CC1=C2)NCCCN1CCN(C2=Nc3ccccc3Oc3ccc(Cl)cc32)CC1` [Loxapine-a-2-NB590], the “NanoBRET Fold Response” value is 0.99 on FPR1 (tracer 0.1μM); 1.10 at FPR1 (tracer 1μM); 0.44 on MTNR1B (tracer 0.1μM); 1.04 on MTNR1B (tracer 1μM); 0.29 on CXCR5 (tracer 0.1μM); 0.90 at CXCR5 (tracer 1μM). For the same molecule, the “NanoBRET Fold Response” value turned out to be 1.01 on HTR1E (tracer 0.1μM) and 0.96 on HTR1E (tracer 1μM).
`CCCn1c(=O)c2[nH]c(-c3ccc(OCC(=O)NCCNC(=O)CCOCCNC(=O)c4ccc(CNC(=O)CCc5ccc6n5[B-](F)(F)[N+]5=C(c7ccc[nH]7)C=CC5=C6)cc4)cc3)nc2n(CCC)c1=O` [XAC-3-NB590]: the “NanoBRET Fold Response” value at FPR1 (tracer 0.1μM) was 1.15; at FPR1 (tracer 1μM) it was 1.10; at MTNR1B (tracer 0.1μM), 1.07; at MTNR1B (tracer 1μM), 1.05; at CXCR5 (tracer 0.1μM), 1.23; at CXCR5 (tracer 1μM), 0.87. The results for the “NanoBRET Fold Response” value on HTR1E (tracer 0.1μM) and on HTR1E (tracer 1μM) were 1.08 and 0.78, respectively.
Take `CCOC(=O)c1cc(C#N)c(N2CCC(C(=O)NS(=O)(=O)Cc3ccccc3/C=C/C(=O)NCCNC(=O)CCc3ccc4n3[B-](F)(F)[N+]3=C(c5ccc[nH]5)C=CC3=C4)CC2)nc1C` [AZD1283-1-NB590]: the “NanoBRET Fold Response” value on FPR1 (0.1μM) is 1.09; at FPR1 (1μM) it was 1.05; at MTNR1B (0.1μM) it was 0.97; on MTNR1B (1μM) it was 0.53; on CXCR5 (0.1μM), 1.04; at CXCR5 (1μM) it was 1.12. The “NanoBRET Fold Response” value is 0.94 on HTR1E (0.1μM) and 0.96 at HTR1E (1μM).
